# Data from article PMC9446893, “Zinc(II) Complex with Pyrazolone-Based Hydrazones is Strongly Effective against Trypanosoma brucei Which Causes African Sleeping Sickness” (Inorganic Chemistry, 2022).
# Key:
# T. brucei TC221 = experiment: Viability of T. brucei TC221 bloodstream forms (resazurin fluorescence); format: cell-based, Trypanosoma brucei
# Protocol: (§1) The biological assays have been conducted in collaboration with Prof. Anders Hofer, Department of Medical Biochemistry and Biophysics, Umeå University, Umeå, Sweden. T. bruceiTC221 bloodstream forms and mouse embryonic fibroblast Balb/3T3 cells (ATCC no CCL-163) were cultivated in a vented plastic flask at 37 °C with 5% CO2. For T. brucei, the growth medium was Hirumi’s modified Iscoves medium (HMI)-9 supplemented with 10% (v/v) fetal bovine serum (Thermo Fischer Scientific Gibco, Waltham, MA, USA), whereas the Balb/3T3 cells were grown in Dulbecco’s modified Eagle’s medium (Sigma-Aldrich) supplemented with 10% (v/v) heat-inactivated fetal bovine serum, glutamine (0.584 g/L), and 10 mL/L 100 × penicillin–streptomycin (Gibco).[48]−[50] […] The plates were incubated for 48 h in the 5%CO2 incubator; then, 20 μL of 0.5 mM resazurine (Sigma-Aldrich) was added to each well, and the plates were incubated for an additional 24 h before the fluorescence was measured with the Synergy H4 microplate reader (excitation wavelength 530 or 540 nm and emission wavelength 590 nm).
# (§2) The half-maximal efficacious concentration (EC50) values were calculated on the log inhibitor versus the response curves by non-linear regression using the GraphPad prism 5.2 software (GraphPad Software, Inc., La Jolla, CA, USA). […]
# Balb/3T3 cells = experiment: Cytotoxicity on Balb/3T3 mammalian reference cells (resazurin fluorescence); format: cell-based; conditions: mouse embryonic fibroblasts, 48 h + 24 h with resazurin
# Protocol: as §1, §2
compound,measurement,setting,value
"Cc1ccc(C(=O)Nc2ccc(S(=O)(=O)O)c3cc(S(=O)(=O)O)cc(S(=O)(=O)O)c23)cc1NC(=O)c1cccc(NC(=O)Nc2cccc(C(=O)Nc3cc(C(=O)Nc4ccc(S(=O)(=O)O)c5cc(S(=O)(=O)O)cc(S(=O)(=O)O)c45)ccc3C)c2)c1 [suramin, reference compound]",SI (selectivity index),T. brucei TC221; T. brucei versus Balb/3T3 reference cells,>100
same,EC50,"T. brucei TC221; Trypanosoma brucei, bloodstream forms, 48 h + 24 h with resazurin",0.023 ± 0.0008 µM
same,EC50,Balb/3T3 cells,43.9 ± 1.44 µM
